Reference: ChEMBL document CHEMBL3638639, “Chemical compounds” (2015)

Molecular target: T1, Solute carrier family 22 member 12 (Homo sapiens, UniProt Q96S37)
T1 sequence (Q96S37 whole entry): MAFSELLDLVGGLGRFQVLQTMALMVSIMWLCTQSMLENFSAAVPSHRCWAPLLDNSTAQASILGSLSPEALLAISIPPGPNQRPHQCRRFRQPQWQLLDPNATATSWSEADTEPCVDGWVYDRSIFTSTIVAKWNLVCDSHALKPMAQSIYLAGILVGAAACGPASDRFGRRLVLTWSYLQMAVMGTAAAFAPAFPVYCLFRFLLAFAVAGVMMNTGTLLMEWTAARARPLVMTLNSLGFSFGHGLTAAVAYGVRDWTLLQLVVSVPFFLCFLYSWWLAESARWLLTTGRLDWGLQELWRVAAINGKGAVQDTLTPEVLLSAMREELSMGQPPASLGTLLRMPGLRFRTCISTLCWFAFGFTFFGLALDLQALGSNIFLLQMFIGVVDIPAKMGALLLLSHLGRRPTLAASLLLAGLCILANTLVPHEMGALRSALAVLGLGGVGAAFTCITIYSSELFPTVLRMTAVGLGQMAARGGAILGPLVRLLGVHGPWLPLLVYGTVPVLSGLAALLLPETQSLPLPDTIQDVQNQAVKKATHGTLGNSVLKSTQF
Experiment: [14C]-Uric Uric acid working stock was made by addition of radiolabeled compound to a final concentration of 120 nM in chloride-free buffer. In all wells, the final assay concentration of solvent (DMSO) was 0.25%; the final assay concentration of [14C]-uric acid was 30 nM in chloride-free buffer and the final compound of formula (I) concentrations ranged from 0 to 10 uM.

IC50 | Compound
1000 nM | N#Cc1cc(S(=O)(=O)Nc2ccc(F)cn2)ccc1Oc1cnc(N2CCC2)c(Cl)c1
84 nM | N#Cc1cc(S(=O)(=O)Nc2ccc(F)cn2)ccc1Oc1ccc(Cl)cc1Cl
117 nM | Cc1ccc(F)c(Oc2ccc(S(=O)(=O)Nc3ccc(F)cn3)cc2C#N)c1
47 nM | N#Cc1ccc(Oc2ccc(S(=O)(=O)Nc3ccc(F)cn3)cc2C#N)c(F)c1
87 nM | N#Cc1cc(S(=O)(=O)Nc2ccc(F)cn2)ccc1Oc1cnc(N)c(Cl)c1
196 nM | Cc1ccc(Cl)c(Oc2ccc(S(=O)(=O)Nc3ccc(F)cn3)cc2C#N)c1
472 nM | CN(C)c1ncc(Oc2ccc(S(=O)(=O)Nc3ccc(F)cn3)cc2C#N)cc1Cl
258 nM | CNc1ncc(Oc2ccc(S(=O)(=O)Nc3ccc(F)cn3)cc2C#N)cc1Cl
495 nM | N#Cc1ccccc1Oc1ccc(S(=O)(=O)Nc2ccc(F)cn2)cc1C#N
